Counter-ions that a name gives are not always drawn.
Experiments:
EGFR Δ19del/T790M/C797S = EGFR Δ19del/T790M/C797S (Homo sapiens, UniProt P00533, T790M/C797S, form not given); assay: Kinase assay (mobility shift) for EGFR Δ19del/T790M/C797S; assay type: biochemical; conditions: read-out: EGFR Δ 19del/T790M/C797S IC50
Protocol: (§1) Enzyme reaction protocol are as followed:
(§2) 1. Preparing 1* Kinase buffer as followed.
(§3) 2. Preparing Compound Concentration Gradient: Compounds were tested at a concentration of 300 nM, diluted to 100-fold final concentration in 100% DMSO solution in 96-well plates, and compounds were diluted 3 times with Precision, 10 concentrations. Each concentration of the compound was then further diluted to a 5-fold final concentration of the intermediate dilution solution using 1* Kinase buffer.
(§4) 3. 5 μL of each of the prepared intermediate dilution compounds was separately added to the compound wells of the 384-well plate, and each concentration was tested for duplicate wells; 5 μL of 5% DMSO was added to the negative control wells and the positive control wells, respectively.
(§5) 4. 2.5-fold final concentration of the kinase solution was prepared using 1*Kinase buffer.
(§6) 6. Centrifuge at 1000 rpm for 30 seconds, shake the reaction plate and incubate for 10 minutes at room temperature.
(§7) 8. 10 μL of a 2.5-fold final concentration of a mixed solution of ATP and a substrate was added to initiate the reaction.
(§8) 9. Centrifuge the 384-well plate at 1000 rpm for 30 seconds, mix by shaking, and incubate at room temperature for the corresponding time.
(§9) 10. Add 30 μL of the stop solution to stop the kinase reaction, centrifuge at 1000 rpm for 30 seconds, and mix by shaking.
(§10) 11. Read the conversion rate with Caliper EZ Reader.
(§11) Convert conversion values to inhibition values:
(§12) Percent inhibition=(max−conversion % sample)/(max−min)*100.
(§13) “max” stands for the mean value of the positive control well ratio; “min” stands for the mean value of the negative control well; conversion % sample: sample conversion reading.
(§14) Fit the data in log(inhibitor) vs. response Variable slope of GraphPad Prism 5 to obtain IC50 values.
(§15) Equation used is: Y=Bottom+(Top−Bottom)/(1+(IC50/X)*HillSlope)

Ba/F3-L858R/T790M/C797S = biological target: T1, Ba/F3-L858R/T790M/C797S (Homo sapiens, UniProt P00533, T790M/C797S/L858R, cells depend on it); assay: Ba/F3-L858R/T790M/C797S cells proliferation assay; assay type: cell-based; conditions: cell proliferation, 72 h, CellTiter Glo; class symbols; read-out: BaF3 L858R/T790M/C797S IC50
T1 construct: BaF3 L858R/T790M/C797S IC50; other: cell proliferation, 72 h, CellTiter Glo; class symbols; numeric values
Protocol: (§16) a) The medium was preheated in a 37 water bath in advance.
(§17) b) Remove the cryogenic vials from the liquid nitrogen tank, quickly put it into a 37° C. water bath, and completely melt it in 1 min.
(§18) c) Transfer the cell suspension to a 15 mL centrifuge tube containing 8 mL medium, centrifuge 1000 rpm, 5 min,
(§19) d) Discard the supernatant, resuspend the cells in 1 mL medium, and transfer to a 75 cm^2 flask containing 15 mL medium, culture the cells in an incubator at 37° C., 5% CO2.
(§20) a) The medium was preheated in a 37° C.; water bath in advance.
(§21) b) Collect cell to a 15 mL centrifuged tube, centrifuge at 1000 rpm for 5 min. Discard the supernatant, count, and make the cell density at 1×10^4 cells/mL, then place it in a 37° C., 5% CO2 incubator.
(§22) b) The above compound solution was diluted 1:20 times with culture medium to prepare a 10 fold working solution;
(§23) a) Take cells in log phase growth, centrifuge at 1000 rpm for 5 min, then resuspend the cells with culture medium, then count cells;
(§24) b) Cells were seeded to 96-well cell culture plate with density at 2000 cells/well;
(§25) The blank control well was a culture medium (0.5% DMSO);
(§26) b) The cells were incubated for an additional 72 h in the incubator.
(§27) a) Remove the 96-well cell culture plate and add 50 μl of CTG reagent (CellTiter Glo kit, promega, Cat #G7573).
(§28) b) Plate was shaked for 2 min and then let it cool for 10 min at room temperature.
(§29) c) The Luminescence signal value was read using a PerkinElmer reader.
(§30) Experimental Data Analysis
(§31) Data were analyzed using GraphPad Prism 6.0 software to obtain a fitted curve of compound activity.
(§32) Y=Bottom+(Top−Bottom)/(1+10^((Log IC50−X)*Hill Slope));
(§33) The cells proliferation assay results are expressed with IC50, shown as Table 2.

Ba/F3-Δ19del/T790M/C797S = Ba/F3-Δ19del/T790M/C797S (Homo sapiens, UniProt P00533, T790M/C797S, cells depend on it, form not given); assay: Ba/F3-Δ19del/T790M/C797S cells proliferation assay; assay type: cell-based; conditions: cell proliferation, 72 h, CellTiter Glo; class symbols; read-out: BaF3 Δ 19del/T790M/C797S IC50
Sequence of Ba/F3-Δ19del/T790M/C797S (P00533 with tags, fused parts or gaps DEL746-750/T790M/C797S, form open): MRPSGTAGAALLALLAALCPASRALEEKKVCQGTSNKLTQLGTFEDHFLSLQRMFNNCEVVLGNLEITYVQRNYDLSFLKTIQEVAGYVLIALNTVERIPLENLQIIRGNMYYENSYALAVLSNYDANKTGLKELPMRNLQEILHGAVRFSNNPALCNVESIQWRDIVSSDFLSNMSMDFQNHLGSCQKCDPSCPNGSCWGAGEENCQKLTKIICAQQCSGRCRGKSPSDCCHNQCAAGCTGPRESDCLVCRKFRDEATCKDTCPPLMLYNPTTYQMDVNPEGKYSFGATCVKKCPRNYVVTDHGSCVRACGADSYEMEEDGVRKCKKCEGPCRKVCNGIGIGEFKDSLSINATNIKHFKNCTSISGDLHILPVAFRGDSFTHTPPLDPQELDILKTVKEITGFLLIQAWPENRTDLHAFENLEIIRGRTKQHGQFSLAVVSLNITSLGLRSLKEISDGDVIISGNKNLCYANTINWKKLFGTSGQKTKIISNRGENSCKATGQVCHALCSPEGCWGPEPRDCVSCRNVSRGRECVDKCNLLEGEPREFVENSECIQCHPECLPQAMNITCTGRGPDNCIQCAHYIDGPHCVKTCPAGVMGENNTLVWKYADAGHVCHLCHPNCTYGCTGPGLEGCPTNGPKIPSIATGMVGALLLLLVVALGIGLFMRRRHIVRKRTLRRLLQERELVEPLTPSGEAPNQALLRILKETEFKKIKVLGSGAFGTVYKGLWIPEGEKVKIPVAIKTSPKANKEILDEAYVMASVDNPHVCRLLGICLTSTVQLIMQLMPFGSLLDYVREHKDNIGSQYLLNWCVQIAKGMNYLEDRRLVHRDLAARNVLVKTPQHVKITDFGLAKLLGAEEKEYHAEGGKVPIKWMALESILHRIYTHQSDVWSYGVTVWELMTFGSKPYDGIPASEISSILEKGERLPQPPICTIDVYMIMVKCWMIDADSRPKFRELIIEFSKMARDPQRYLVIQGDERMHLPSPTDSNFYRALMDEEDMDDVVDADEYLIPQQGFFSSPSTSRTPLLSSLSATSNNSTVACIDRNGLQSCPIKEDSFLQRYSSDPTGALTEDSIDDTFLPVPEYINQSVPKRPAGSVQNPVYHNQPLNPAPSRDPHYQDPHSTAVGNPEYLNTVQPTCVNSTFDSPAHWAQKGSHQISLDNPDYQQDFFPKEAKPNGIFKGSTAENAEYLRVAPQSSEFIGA
Protocol: as §16, §17, §18, §19, §20, §21, §22, §23, §24, §25, §26, §27, §28, §29, §30, §31, §32, §33

H1975(L858R/T790M) = assay: H1975 cells proliferation assay; assay type: cell-based; conditions: Homo sapiens, NCI-H1975; cell proliferation, 72 h, CellTiter Glo; class symbols; read-out: H1975 IC50
Protocol: (§34) Test 3 H1975 and HCC827 Cells Proliferation Assay
(§35) a) The medium was preheated in a 37° C. water bath in advance.
as §17
(§36) c) Transfer the cell suspension to a 15 mL centrifuge tube containing 8 mL medium, centrifuge 1000 rpm, 5 min.
as §19, §21, §22, §23
(§37) b) Cells were seeded to 96-well cell culture plate with density at 2000 cells/well (suitable for H1975 cell) and at 2500 cells/well (suitable for HCC827 cell);
as §25, §26, §27, §28, §29, §30, §31
(§38) Y=Bottom+(Top−Bottom)/(1+10^((Log IC50−X)*HillSlope));
as §33

HCC827(Δ19del) = assay: HCC827 cells proliferation assay; assay type: cell-based; conditions: Homo sapiens, HCC827; cell proliferation, 72 h, CellTiter Glo; class symbols; read-out: HCC827 IC50
Protocol: as §34, §35, §17, §36, §19, §21, §22, §23, §37, §25, §26, §27, §28, §29, §30, §31, §38, §33

EGFR L858R = EGFR L858R (Homo sapiens, UniProt P00533, L858R); assay: Kinase assay (mobility shift) for EGFR L858R; assay type: biochemical
Sequence of EGFR L858R (P00533 25-1210 L858R): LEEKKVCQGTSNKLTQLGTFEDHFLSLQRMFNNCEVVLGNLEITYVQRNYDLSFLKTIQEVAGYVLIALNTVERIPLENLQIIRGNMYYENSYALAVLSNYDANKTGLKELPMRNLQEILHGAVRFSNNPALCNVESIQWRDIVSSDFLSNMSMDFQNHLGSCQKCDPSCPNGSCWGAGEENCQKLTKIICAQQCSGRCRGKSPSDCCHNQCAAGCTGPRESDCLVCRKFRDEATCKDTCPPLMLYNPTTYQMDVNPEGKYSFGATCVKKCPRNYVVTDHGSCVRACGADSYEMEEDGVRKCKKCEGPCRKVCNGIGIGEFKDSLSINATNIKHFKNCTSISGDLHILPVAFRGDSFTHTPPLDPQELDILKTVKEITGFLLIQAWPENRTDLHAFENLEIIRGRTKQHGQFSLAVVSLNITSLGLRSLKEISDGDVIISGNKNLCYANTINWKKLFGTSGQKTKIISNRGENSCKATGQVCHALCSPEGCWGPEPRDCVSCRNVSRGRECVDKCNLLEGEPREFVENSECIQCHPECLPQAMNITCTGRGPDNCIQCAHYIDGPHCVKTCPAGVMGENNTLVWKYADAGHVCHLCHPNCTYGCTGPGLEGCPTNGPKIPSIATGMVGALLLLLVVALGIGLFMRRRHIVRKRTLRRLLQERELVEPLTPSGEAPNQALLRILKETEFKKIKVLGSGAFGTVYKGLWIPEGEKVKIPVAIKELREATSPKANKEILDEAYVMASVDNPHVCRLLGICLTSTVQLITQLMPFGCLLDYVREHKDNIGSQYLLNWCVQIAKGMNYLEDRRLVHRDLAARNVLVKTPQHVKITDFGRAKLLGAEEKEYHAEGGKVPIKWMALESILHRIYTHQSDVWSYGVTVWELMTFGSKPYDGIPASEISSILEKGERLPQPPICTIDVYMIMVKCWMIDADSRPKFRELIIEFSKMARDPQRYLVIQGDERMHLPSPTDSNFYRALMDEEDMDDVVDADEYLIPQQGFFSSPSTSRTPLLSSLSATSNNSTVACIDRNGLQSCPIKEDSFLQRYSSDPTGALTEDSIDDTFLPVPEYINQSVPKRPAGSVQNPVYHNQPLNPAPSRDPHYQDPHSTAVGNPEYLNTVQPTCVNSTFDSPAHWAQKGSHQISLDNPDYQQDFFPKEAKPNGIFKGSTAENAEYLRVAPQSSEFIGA
Protocol: as §1, §2, §3, §4, §5, §6, §7, §8, §9, §10, §11, §12, §13, §14, §15

EGFR T790M/L858R = EGFR T790M/L858R (Homo sapiens, UniProt P00533, L858R/T790M); assay: Kinase assay (mobility shift) for EGFR T790M/L858R; assay type: biochemical
Sequence of EGFR T790M/L858R (P00533 25-1210 T790M/L858R): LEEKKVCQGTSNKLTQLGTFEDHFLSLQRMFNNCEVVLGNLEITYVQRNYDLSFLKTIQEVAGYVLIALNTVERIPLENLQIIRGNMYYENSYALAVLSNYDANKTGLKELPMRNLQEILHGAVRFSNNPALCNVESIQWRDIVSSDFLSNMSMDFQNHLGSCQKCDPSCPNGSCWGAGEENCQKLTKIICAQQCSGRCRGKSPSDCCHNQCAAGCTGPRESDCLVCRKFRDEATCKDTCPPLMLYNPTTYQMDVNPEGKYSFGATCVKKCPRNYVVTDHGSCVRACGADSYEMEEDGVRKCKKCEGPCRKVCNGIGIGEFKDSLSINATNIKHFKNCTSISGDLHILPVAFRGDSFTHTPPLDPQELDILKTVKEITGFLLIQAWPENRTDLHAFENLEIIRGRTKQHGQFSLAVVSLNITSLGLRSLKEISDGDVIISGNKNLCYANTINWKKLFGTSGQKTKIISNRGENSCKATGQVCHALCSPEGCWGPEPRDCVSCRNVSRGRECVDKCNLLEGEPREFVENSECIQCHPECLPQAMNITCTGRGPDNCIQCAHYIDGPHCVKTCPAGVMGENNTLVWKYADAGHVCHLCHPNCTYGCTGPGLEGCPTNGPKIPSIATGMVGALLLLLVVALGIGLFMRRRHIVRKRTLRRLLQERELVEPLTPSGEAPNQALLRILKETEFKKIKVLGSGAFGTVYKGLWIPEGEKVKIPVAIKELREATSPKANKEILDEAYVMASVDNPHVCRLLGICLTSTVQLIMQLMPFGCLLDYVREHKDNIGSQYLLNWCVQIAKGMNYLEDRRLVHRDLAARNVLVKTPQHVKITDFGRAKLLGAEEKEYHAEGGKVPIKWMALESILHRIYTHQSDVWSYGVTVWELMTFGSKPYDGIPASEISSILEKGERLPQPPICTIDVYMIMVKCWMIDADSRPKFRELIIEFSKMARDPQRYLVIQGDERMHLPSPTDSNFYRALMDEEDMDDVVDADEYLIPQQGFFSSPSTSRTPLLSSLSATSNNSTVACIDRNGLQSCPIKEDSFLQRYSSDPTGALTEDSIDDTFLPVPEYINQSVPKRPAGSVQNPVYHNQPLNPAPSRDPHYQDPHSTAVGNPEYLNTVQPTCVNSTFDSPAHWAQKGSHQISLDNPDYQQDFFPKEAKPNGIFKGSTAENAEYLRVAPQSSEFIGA
Protocol: as §1, §2, §3, §4, §5, §6, §7, §8, §9, §10, §11, §12, §13, §14, §15

Sequence of EGFR Δ19del/T790M/C797S (P00533 with tags, fused parts or gaps DEL746-750/T790M/C797S, form open): as the sequence (P00533 with tags, fused parts or gaps DEL746-750/T790M/C797S, form open) above

Compound	IC50 (EGFR Δ19del/T790M/C797S) [nM]	GI50 (Ba/F3-L858R/T790M/C797S) [nM]	GI50 (Ba/F3-Δ19del/T790M/C797S) [nM]	IC50 (H1975(L858R/T790M)) [nM]	IC50 (HCC827(Δ19del)) [nM]	IC50 (EGFR L858R) [nM]	IC50 (EGFR T790M/L858R) [nM]
C=CC(=O)Nc1cc(Nc2ncc(C)c(Nc3ccccc3P(C)(C)=O)n2)ccc1N(C)CCN(C)C [Compound 19, N-(2-((2-(dimethylamino)ethyl)(methyl)amino)-5-((4-((2-(dimethylphosphoryl)phenyl)amino)-5-methylpyrimidin-2-yl)amino)phenyl)acrylamide hydrochloric acid salt]	< 10	–	10 to 50	10 to 50	< 10	< 10	< 10
C=CC(=O)Nc1cc(Nc2ncc(Br)c(Nc3ccc4nccnc4c3P(C)(C)=O)n2)ccc1N(C)CCN(C)C [Compound 34, N-(5-(5-bromo-4-(5-(dimethylphosphoryl)quinoxalin-6-ylamino)pyrimidin-2-ylamino)-2-((2-(dimethylamino)ethyl)(methyl)amino)phenyl)acrylamide]	< 10	< 10	< 10	< 10	< 10	–	–
C=CC(=O)Nc1cc(Nc2ncc(Br)c(Nc3ccc4nccnc4c3P(C)(C)=O)n2)ccc1N1CCC2(CC1)CC(N(C)C)C2 [Compound 35, N-(5-(5-bromo-4-(5-(dimethylphosphoryl)quinoxalin-6-ylamino)pyrimidin-2-ylamino)-2-(2-(dimethylamino)-7-azaspiro[3.5]nonan-7-yl)phenyl)acrylamide]	< 10	< 10	< 10	< 10	< 10	–	–
C=CC(=O)Nc1cc(Nc2ncc(Br)c(Nc3ccc4nccnc4c3P(C)(C)=O)n2)ccc1N1CCC(N2CCN(C)CC2)CC1 [Compound 12, N-(5-((5-bromo-4-((5-(dimethylphosphoryl)quinoxalin-6-yl)amino)pyrimidin-2-yl)amino)-2-(4-(4-methylpiperazin-1-yl)piperidin-1-yl)phenyl)acrylamide]	–	10 to 50	10 to 50	10 to 50	10 to 50	–	–
C=CC(=O)Nc1cc(Nc2ncc(C)c(Nc3ccccc3P(C)(C)=O)n2)ccc1N1CCC(N2CCN(C)CC2)CC1 [Compound 20, N-(5-((4-((2-(dimethylphosphoryl)phenyl)amino)-5-methylpyrimidin-2-yl)amino)-2-(4-(4-methylpiperazin-1-yl)piperidin-1-yl)phenyl)acrylamide]	< 10	–	10 to 50	10 to 50	< 10	< 10	< 10
C=CC(=O)Nc1cc(Nc2ncc(Cl)c(Nc3ccc4nccnc4c3P(C)(C)=O)n2)c(OC)cc1N1CCC2(CC1)CC(N(C)C)C2 [Compound 11, N-(5-((5-chloro-4-((5-(dimethylphosphoryl)quinoxalin-6-yl)amino)pyrimidin-2-yl)amino)-2-(2-(dimethylamino)-7-azaspiro[3.5]nonan-7-yl)-4-methoxyphenyl)acrylamide]	< 10	–	10 to 50	10 to 50	10 to 50	–	–
C=CC(=O)Nc1cc(Nc2ncc(F)c(Nc3ccccc3P(C)(C)=O)n2)ccc1N1CCC(N2CCN(C)CC2)CC1 [Compound 29, N-(5-((4-((2-(dimethylphosphoryl)phenyl)amino)-5-fluoropyrimidin-2-yl)amino)-2-(4-(4-methylpiperazin-1-yl)piperidin-1-yl)phenyl)acrylamide]	< 10	–	10 to 50	–	10 to 50	10 to 100	< 10

The remaining lines, values ahead:

IC50 (EGFR Δ19del/T790M/C797S) [nM]	GI50 (Ba/F3-L858R/T790M/C797S) [nM]	GI50 (Ba/F3-Δ19del/T790M/C797S) [nM]	IC50 (H1975(L858R/T790M)) [nM]	IC50 (HCC827(Δ19del)) [nM]	IC50 (EGFR L858R) [nM]	IC50 (EGFR T790M/L858R) [nM]	Compound
< 10	10 to 50	10 to 50	–	–	–	–	C=C(F)C(=O)Nc1cc(Nc2ncc(Cl)c(Nc3ccccc3P(C)(C)=O)n2)ccc1N1CCC2(CC1)CC(N(C)C)C2 [Compound 9, N-(5-((5-chloro-4-((2-(dimethylphosphoryl)phenyl)amino)pyrimidin-2-yl)amino)-2-(2-(dimethylamino)-7-azaspiro[3.5]nonan-7-yl)phenyl)-2-fluoroacrylamide]
< 10	10 to 50	10 to 50	10 to 50	10 to 50	–	–	CN(C)C/C=C/C(=O)Nc1cc(Nc2ncc(Cl)c(Nc3ccccc3P(C)(C)=O)n2)ccc1N1CCC2(CC1)CC(N(C)C)C2 [Compound 8, (E)-N-(5-((5-chloro-4-((2-(dimethylphosphoryl)phenyl)amino)pyrimidin-2-yl)amino)-2-(2-(dimethylamino)-7-azaspiro[3.5]nonan-7-yl)phenyl)-4-(dimethylamino)but-2-enamide]
< 10	10 to 50	< 10	10 to 50	10 to 50	–	–	C=CC(=O)Nc1cc(Nc2ncc(Cl)c(Nc3ccc4ncccc4c3P(C)(C)=O)n2)ccc1N1CCC2(CC1)CC(N(C)C)C2 [Compound 30, N-(5-((5-chloro-4-((5-(dimethylphosphoryl)quinolin-6-yl)amino)pyrimidin-2-yl)amino)-2-(2-(dimethylamino)-7-azaspiro[3.5]nonan-7-yl)phenyl)acrylamide]
< 10	–	10 to 50	–	–	–	–	C=CC(=O)N(C)c1cc(Nc2ncc(Cl)c(Nc3ccccc3P(C)(C)=O)n2)ccc1N1CCC2(CC1)CC(N(C)C)C2 [Compound 6, N-(5-((5-chloro-4-((2-(dimethylphosphoryl)phenyl)amino)pyrimidin-2-yl)amino)-2-(2-(dimethylamino)-7-azaspiro[3.5]nonan-7-yl)phenyl)-N-methylacrylamide]
< 10	< 10	< 10	10 to 50	10 to 50	–	–	C=CC(=O)Nc1cc(Nc2ncc(Cl)c(Nc3ccc4ccccc4c3P(C)(C)=O)n2)ccc1N1CCC2(CC1)CC(N(C)C)C2 [Compound 23, N-(5-((5-chloro-4-((1-(dimethylphosphoryl)naphthalen-2-yl)amino)pyrimidin-2-yl)amino)-2-(2-(dimethylamino)-7-azaspiro[3.5]nonan-7-yl)phenyl)acrylamide hydrochloric acid salt]
< 10	10 to 50	10 to 50	–	10 to 50	–	–	C=C(C)C(=O)Nc1cc(Nc2ncc(Cl)c(Nc3ccccc3P(C)(C)=O)n2)ccc1N1CCC2(CC1)CC(N(C)C)C2 [Compound 7, N-(5-((5-chloro-4-((2-(dimethylphosphoryl)phenyl)amino)pyrimidin-2-yl)amino)-2-(2-(dimethylamino)-7-azaspiro[3.5]nonan-7-yl)phenyl)methacrylamide]
